Test [1] deals with T1, human 5-HT6 receptor (Homo sapiens (Human), UniProt P50406). Nature of the test: Cell-based functional assay measuring cAMP production (HTRF). The settings on record: for Emax: agonist mode, relative to 10 μM 5-HT Emax control, read-out: Emax (agonism); for functional activity at the human 5HT6 receptor: cell based assay. The method, then: Compounds were further diluted to 4× assay concentrations with serum free media containing IBMX. […] Cells were lysed by addition of HTRFTM reagents (CisBio International) and after another 30 minute incubation, the plates were read on an AnalystGT (MDS) or SynergyHT (BioTek) microplate reader. […] Antagonist activity was expressed as the ratio of cAMP produced in a test well to the average cAMP produced in the EC80 challenge control wells. Agonist activity was determined after a full 30 minutes of incubation at room temperature, using 10 μM 5-HT as the Emax control. Cells were lysed by addition of HTRFTM reagents (CisBio International) and after another 30 minute incubation, the plates were read on an AnalystGT (MDS) or SynergyHT (BioTek) microplate reader. […] Agonist activity was expressed as the ratio of cAMP produced in a test well to the average cAMP produced in the Emax control wells. All cell-based experiments were performed in duplicate using ten concentrations of test compound with 5-HT (agonist mode) or a known antagonist (antagonist mode) included as additional controls in every run. […] For antagonists, the apparent dissociation constant (Kb) was calculated using a modified Cheng-Prusoff equation: Kb=IC50/([…][…])), where A=concentration of reference agonist in the assay and E[…]=EC50 value of the reference agonist.

Test [2] has as its target T1, human 5-HT6 receptor. Nature of the test: 5-HT6 radioligand binding assay (SPA format, [N-methyl-3H]-LSD). The settings on record: human 5-HT6 receptor membranes, 10 nM [N-methyl-3H]-LSD; Ki by Cheng-Prusoff; read-out: human 5HT6 Ki. Summed up:
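Human 5-HT6 receptor membranes were incubated overnight at room temperature with 10 nM [N-methyl-3H]-LSD and competitor in 50 mM Tris-HCl pH 7.5, 5 mM MgCl2, 1 mM EDTA, 4% DMSO, read by SPA. Nonspecific binding was defined with 100 μM 5-HT. IC50 came from ten-point duplicate curves; Ki via Cheng-Prusoff.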

pKi: −log10 of the molar value.

What is called Emax is the maximal effect, on the per cent scale that the assay sets. The term pKi denotes −log10 of the Ki, conventionally taken in molar units.

T1 sequence (P50406 whole entry): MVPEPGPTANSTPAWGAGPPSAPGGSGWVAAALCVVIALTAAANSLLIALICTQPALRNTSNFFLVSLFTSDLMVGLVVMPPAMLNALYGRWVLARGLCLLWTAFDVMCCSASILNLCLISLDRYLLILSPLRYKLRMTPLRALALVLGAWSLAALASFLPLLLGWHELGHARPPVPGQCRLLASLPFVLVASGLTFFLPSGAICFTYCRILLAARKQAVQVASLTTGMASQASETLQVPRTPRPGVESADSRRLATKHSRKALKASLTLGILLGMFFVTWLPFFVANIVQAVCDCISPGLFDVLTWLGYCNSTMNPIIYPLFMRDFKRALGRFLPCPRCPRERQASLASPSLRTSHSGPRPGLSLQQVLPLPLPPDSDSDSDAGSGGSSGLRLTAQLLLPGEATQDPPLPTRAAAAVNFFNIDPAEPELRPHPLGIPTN

Take `Cl.O=S(=O)(c1ccc(OC(F)(F)F)cc1)c1cc(Cl)c2oc3c(c2c1)CNCC3` [Example 112]: at human 5-HT6 receptor [1], the Emax was 19% and the “functional activity at the human 5HT6 receptor” value was “weak partial agonists”. Moreover, the pKi at human 5-HT6 receptor [2] is 8.31.

On to `Cl.O=S(=O)(c1ccc(C(F)(F)F)cc1)c1cc(Cl)c2oc3c(c2c1)CNCC3` [Example 111], for which, at human 5-HT6 receptor [1], the Emax was found to be 27% and the “functional activity at the human 5HT6 receptor” value is “weak partial agonists”. Besides, the negative logarithm of the Ki (pKi) at human 5-HT6 receptor [2] was 8.48.

The values above are taken from US9067949B2, “Benzofuro[3,2-c] pyridines and related analogs as serotonin sub-type 6 (5-HT6) modulators for the treatment of obesity, metabolic syndrome, cognition and schizophrenia” (Albany Molecular Research, Inc., priority 2011, dated 2015).
